Experimental data reported in patent US8410161B2, “Thioxanthone ring system derivatives” (National Defense Medical Center, priority 2010, dated 2013).

Columns and labels:
60 cancer lines = experiment: NCI cell toxicity assay of 60 cancer lines, whole panel summary; format: cell-based, human; settings: 1.00E−5 Molar
Procedure: (§1) Then, a cell toxicity assay of the cancer lines made by National Cancer Institute will be discussed as follows. The cell toxicity assay is performed by choosing ten compounds (existing certification numbers) from the 59 compounds disclosed in the present invention first.

U251 = experiment: NCI in vitro DTP human cell line screen, U251; format: cell-based; settings: CNS Cancer, 1.00E−5 Molar
Procedure: as §1

HL-60(TB) = experiment: NCI in vitro DTP human cell line screen, HL-60(TB); format: cell-based; settings: Leukemia, 1.00E−5 Molar
Procedure: as §1

EKVX = experiment: NCI in vitro DTP human cell line screen, EKVX; format: cell-based; settings: Non-Small Cell Lung Cancer, 1.00E−5 Molar
Procedure: as §1

HOP-92 = experiment: NCI in vitro DTP human cell line screen, HOP-92; format: cell-based; settings: Non-Small Cell Lung Cancer, 1.00E−5 Molar
Procedure: as §1

SN12C = experiment: NCI in vitro DTP human cell line screen, SN12C; format: cell-based; settings: Renal Cancer, 1.00E−5 Molar
Procedure: as §1

MCF7 = experiment: NCI in vitro DTP human cell line screen, MCF7; format: cell-based; settings: Breast Cancer, 1.00E−5 Molar
Procedure: as §1

HT29 = experiment: NCI in vitro DTP human cell line screen, HT29; format: cell-based; settings: Colon Cancer, 1.00E−5 Molar
Procedure: as §1

OVCAR-8 = experiment: NCI in vitro DTP human cell line screen, OVCAR-8; format: cell-based; settings: Ovarian Cancer, 1.00E−5 Molar
Procedure: as §1

SK-MEL-2 = experiment: NCI in vitro DTP human cell line screen, SK-MEL-2; format: cell-based; settings: Melanoma, 1.00E−5 Molar
Procedure: as §1

SR = experiment: NCI in vitro DTP human cell line screen, SR; format: cell-based; settings: Leukemia, 1.00E−5 Molar
Procedure: as §1

MDA-MB-468 = experiment: NCI in vitro DTP human cell line screen, MDA-MB-468; format: cell-based; settings: Breast Cancer, 1.00E−5 Molar
Procedure: as §1

CAKI-1 = experiment: NCI in vitro DTP human cell line screen, CAKI-1; format: cell-based; settings: Renal Cancer, 1.00E−5 Molar
Procedure: as §1

IGROV1 = experiment: NCI in vitro DTP human cell line screen, IGROV1; format: cell-based; settings: Ovarian Cancer, 1.00E−5 Molar
Procedure: as §1

NCI/ADR-RES = experiment: NCI in vitro DTP human cell line screen, NCI/ADR-RES; format: cell-based; settings: Ovarian Cancer, 1.00E−5 Molar
Procedure: as §1

UACC-62 = experiment: NCI in vitro DTP human cell line screen, UACC-62; format: cell-based; settings: Melanoma, 1.00E−5 Molar
Procedure: as §1

RXF 393 = experiment: NCI in vitro DTP human cell line screen, RXF 393; format: cell-based; settings: Renal Cancer, 1.00E−5 Molar
Procedure: as §1

SF-539 = experiment: NCI in vitro DTP human cell line screen, SF-539; format: cell-based; settings: CNS Cancer, 1.00E−5 Molar
Procedure: as §1

HCT-15 = experiment: NCI in vitro DTP human cell line screen, HCT-15; format: cell-based; settings: Colon Cancer, 1.00E−5 Molar
Procedure: as §1

OVCAR-4 = experiment: NCI in vitro DTP human cell line screen, OVCAR-4; format: cell-based; settings: Ovarian Cancer, 1.00E−5 Molar
Procedure: as §1

K562 = experiment: NCI in vitro DTP human cell line screen, K562; format: cell-based; settings: Leukemia, 1.00E−5 Molar
Procedure: as §1

A3 cell lines = experiment: MTT assay, A3 cell lines (lung cancer stem cell); format: cell-based
Text: Please to FIG. 4B, various cell viabilities of the A3 cell lines can be obtained through the MTT assay and illustrated in FIG. 4B while the compounds No. 1˜30 are used to treat A3 cell lines, wherein A3 cell lines are lung cancer stem cell.

DU145 = experiment: NCI in vitro DTP human cell line screen, DU145; format: cell-based; settings: Prostate Cancer, 1.00E−5 Molar
Procedure: as §1

A control cell lines = experiment: MTT assay, A control cell lines (lung cancer cell); format: cell-based
Text: Please refer to Table 1 and FIGS. 4A-4C. According to a MTT assay (Table 1), various cell viabilities of the A control cell lines can be obtained and illustrated in FIG. 4A while the compounds No. 2˜30 are used to treat A control cell lines, wherein A control cell lines are lung cancer cell.

UACC-257 = experiment: NCI in vitro DTP human cell line screen, UACC-257; format: cell-based; settings: Melanoma, 1.00E−5 Molar
Procedure: as §1

T-47D = experiment: NCI in vitro DTP human cell line screen, T-47D; format: cell-based; settings: Breast Cancer, 1.00E−5 Molar
Procedure: as §1

NCI-H460 = experiment: NCI in vitro DTP human cell line screen, NCI-H460; format: cell-based; settings: Non-Small Cell Lung Cancer, 1.00E−5 Molar
Procedure: as §1

PC-3 = experiment: NCI in vitro DTP human cell line screen, PC-3; format: cell-based; settings: Prostate Cancer, 1.00E−5 Molar
Procedure: as §1

CCRF-CEM = experiment: NCI in vitro DTP human cell line screen, CCRF-CEM; format: cell-based; settings: Leukemia, 1.00E−5 Molar
Procedure: as §1

SK-OV-3 = experiment: NCI in vitro DTP human cell line screen, SK-OV-3; format: cell-based; settings: Ovarian Cancer, 1.00E−5 Molar
Procedure: as §1

HS 578-T = experiment: NCI in vitro DTP human cell line screen, HS 578-T; format: cell-based; settings: Breast Cancer, 1.00E−5 Molar
Procedure: as §1

SW-620 = experiment: NCI in vitro DTP human cell line screen, SW-620; format: cell-based; settings: Colon Cancer, 1.00E−5 Molar
Procedure: as §1

SK-MEL-5 = experiment: NCI in vitro DTP human cell line screen, SK-MEL-5; format: cell-based; settings: Melanoma, 1.00E−5 Molar
Procedure: as §1

NCI-H322M = experiment: NCI in vitro DTP human cell line screen, NCI-H322M; format: cell-based; settings: Non-Small Cell Lung Cancer, 1.00E−5 Molar
Procedure: as §1

MDA-MB-231/ATCC = experiment: NCI in vitro DTP human cell line screen, MDA-MB-231/ATCC; format: cell-based; settings: Breast Cancer, 1.00E−5 Molar
Procedure: as §1

HCC-2998 = experiment: NCI in vitro DTP human cell line screen, HCC-2998; format: cell-based; settings: Colon Cancer, 1.00E−5 Molar
Procedure: as §1

SNB-19 = experiment: NCI in vitro DTP human cell line screen, SNB-19; format: cell-based; settings: CNS Cancer, 1.00E−5 Molar
Procedure: as §1

M14 = experiment: NCI in vitro DTP human cell line screen, M14; format: cell-based; settings: Melanoma, 1.00E−5 Molar
Procedure: as §1

COLO 205 = experiment: NCI in vitro DTP human cell line screen, COLO 205; format: cell-based; settings: Colon Cancer, 1.00E−5 Molar
Procedure: as §1

LOX IMVI = experiment: NCI in vitro DTP human cell line screen, LOX IMVI; format: cell-based; settings: Melanoma, 1.00E−5 Molar
Procedure: as §1

MDA-MB-435 = experiment: NCI in vitro DTP human cell line screen, MDA-MB-435; format: cell-based; settings: Melanoma, 1.00E−5 Molar
Procedure: as §1

BT-549 = experiment: NCI in vitro DTP human cell line screen, BT-549; format: cell-based; settings: Breast Cancer, 1.00E−5 Molar
Procedure: as §1

786-0 = experiment: NCI in vitro DTP human cell line screen, 786-0; format: cell-based; settings: Renal Cancer, 1.00E−5 Molar
Procedure: as §1

SNB-75 = experiment: NCI in vitro DTP human cell line screen, SNB-75; format: cell-based; settings: CNS Cancer, 1.00E−5 Molar
Procedure: as §1

SK-MEL-28 = experiment: NCI in vitro DTP human cell line screen, SK-MEL-28; format: cell-based; settings: Melanoma, 1.00E−5 Molar
Procedure: as §1

SF-268 = experiment: NCI in vitro DTP human cell line screen, SF-268; format: cell-based; settings: CNS Cancer, 1.00E−5 Molar
Procedure: as §1

UO-31 = experiment: NCI in vitro DTP human cell line screen, UO-31; format: cell-based; settings: Renal Cancer, 1.00E−5 Molar
Procedure: as §1

ACHN = experiment: NCI in vitro DTP human cell line screen, ACHN; format: cell-based; settings: Renal Cancer, 1.00E−5 Molar
Procedure: as §1

NCI-H23 = experiment: NCI in vitro DTP human cell line screen, NCI-H23; format: cell-based; settings: Non-Small Cell Lung Cancer, 1.00E−5 Molar
Procedure: as §1

SF-295 = experiment: NCI in vitro DTP human cell line screen, SF-295; format: cell-based; settings: CNS Cancer, 1.00E−5 Molar
Procedure: as §1

RPMI-8226 = experiment: NCI in vitro DTP human cell line screen, RPMI-8226; format: cell-based; settings: Leukemia, 1.00E−5 Molar
Procedure: as §1

MOLT-4 = experiment: NCI in vitro DTP human cell line screen, MOLT-4; format: cell-based; settings: Leukemia, 1.00E−5 Molar
Procedure: as §1

HCT-116 = experiment: NCI in vitro DTP human cell line screen, HCT-116; format: cell-based; settings: Colon Cancer, 1.00E−5 Molar
Procedure: as §1

NCI-H522 = experiment: NCI in vitro DTP human cell line screen, NCI-H522; format: cell-based; settings: Non-Small Cell Lung Cancer, 1.00E−5 Molar
Procedure: as §1

KM12 = experiment: NCI in vitro DTP human cell line screen, KM12; format: cell-based; settings: Colon Cancer, 1.00E−5 Molar
Procedure: as §1

MALME-3M = experiment: NCI in vitro DTP human cell line screen, MALME-3M; format: cell-based; settings: Melanoma, 1.00E−5 Molar
Procedure: as §1

OVCAR-5 = experiment: NCI in vitro DTP human cell line screen, OVCAR-5; format: cell-based; settings: Ovarian Cancer, 1.00E−5 Molar
Procedure: as §1

NCI-H226 = experiment: NCI in vitro DTP human cell line screen, NCI-H226; format: cell-based; settings: Non-Small Cell Lung Cancer, 1.00E−5 Molar
Procedure: as §1

OVCAR-3 = experiment: NCI in vitro DTP human cell line screen, OVCAR-3; format: cell-based; settings: Ovarian Cancer, 1.00E−5 Molar
Procedure: as §1

[1] = MTT assay, HEL299 fibroblast; format: cell-based; settings: human
Text: Please refer to FIG. 4C, various cell viabilities of the HEL299 cell lines can be obtained through the MTT assay while the compounds No. 1˜30 are used to treat HEL299 cell lines, wherein HEL299 cell lines are fibroblast.

TK-10 = experiment: NCI in vitro DTP human cell line screen, TK-10; format: cell-based; settings: Renal Cancer, 1.00E−5 Molar
Procedure: as §1

## O=c1c2ccccc2sc2c(Cl)c(Sc3ccc(Cl)cc3)ccc12 [No. 29, 4-Chloro-3-(4-chlorophenylthio)-9H-thioxanthen-9-one]
60 cancer lines; mean over all cell lines
  Growth Percent, Mean: 78.44%
60 cancer lines; summary of Table 3
  cancer types with the better inhibition effect (in words): better inhibition effect on Leukemia, non-small cell lung cancer, colorectal cancer, central nervous system cancer, ovarian cancer and kidney cancer
U251
  Growth Percent: 47.77%
HL-60(TB)
  Growth Percent: 105.61%
EKVX
  Growth Percent: 73.14%
HOP-92
  Growth Percent: 49.52%
SN12C
  Growth Percent: 70.19%
MCF7
  Growth Percent: 83.90%
HT29
  Growth Percent: 86.36%
OVCAR-8
  Growth Percent: 64.49%
SK-MEL-2
  Growth Percent: 105.36%
SR
  Growth Percent: 51.19%
MDA-MB-468
  Growth Percent: 87.73%
CAKI-1
  Growth Percent: 48.21%
IGROV1
  Growth Percent: 53.39%
NCI/ADR-RES
  Growth Percent: 81.27%
UACC-62
  Growth Percent: 82.23%
RXF 393
  Growth Percent: 97.81%
SF-539
  Growth Percent: 86.15%
HCT-15
  Growth Percent: 85.15%
OVCAR-4
  Growth Percent: 31.58%
K562
  Growth Percent: 96.64%
A3 cell lines
  cell viabilities of A3 cell lines (MTT assay): 70.3 ± 5.31%
DU145
  Growth Percent: 108.68%
A control cell lines
  cell viabilities of A control cell lines (MTT assay): 70.1 ± 2.68%
UACC-257
  Growth Percent: 99.23%
T-47D
  Growth Percent: 85.63%
NCI-H460
  Growth Percent: 40.25%
PC-3
  Growth Percent: 77.10%
CCRF-CEM
  Growth Percent: 67.42%
SK-OV-3
  Growth Percent: 73.85%
HS 578-T
  Growth Percent: 102.79%
SW-620
  Growth Percent: 75.00%
SK-MEL-5
  Growth Percent: 88.35%
NCI-H322M
  Growth Percent: 56.53%
MDA-MB-231/ATCC
  Growth Percent: 77.55%
HCC-2998
  Growth Percent: 98.92%
SNB-19
  Growth Percent: 74.97%
M14
  Growth Percent: 89.62%
COLO 205
  Growth Percent: 87.02%
LOX IMVI
  Growth Percent: 63.24%
MDA-MB-435
  Growth Percent: 85.11%
BT-549
  Growth Percent: 87.92%
786-0
  Growth Percent: 84.66%
SNB-75
  Growth Percent: 76.16%
SK-MEL-28
  Growth Percent: 114.93%
SF-268
  Growth Percent: 81.14%
UO-31
  Growth Percent: 69.61%
ACHN
  Growth Percent: 39.55%
NCI-H23
  Growth Percent: 83.03%
SF-295
  Growth Percent: 57.86%
RPMI-8226
  Growth Percent: 88.56%
MOLT-4
  Growth Percent: 94.77%
HCT-116
  Growth Percent: 54.33%
NCI-H522
  Growth Percent: 80.48%
KM12
  Growth Percent: 73.79%
MALME-3M
  Growth Percent: 76.90%
OVCAR-5
  Growth Percent: 107.36%
NCI-H226
  Growth Percent: 81.05%
OVCAR-3
  Growth Percent: 90.37%
[1]
  viability: 74.5 ± 9.39%
TK-10
  Growth Percent: 88.86%
